Data: patent US20240228474A1, “ANTIBACTERIAL COMPOUND” (DISCUVA LIMITED, priority 2021, published 2024)

Tested on: E. coli UT189
Assay: Murine urinary tract infection proof-of-concept study, IV bolus
Assay type: in vivo
Protocol: Compound (I) and comparative compound (III) were evaluated in proof-of-concept studies in murine models for the treatment of a respiratory infection with Gram-negative bacteria of the order Enterobacterales, a bacteraemia or bloodstream infection with Gram-negative bacteria of the order Enterobacterales, and a urinary tract infection with Gram-negative bacteria of the order Enterobacterales. Each dot, triangle or square indicator represents a single mouse. LOD refers to the limit of detection of the bacteria. […] Each of the proof-of-concept studies was carried out separately. By vehicle is meant pharmaceutically acceptable carrier or excipient. For the proof-of-concept study for the treatment of a urinary tract infection with Enterobacterales, female C3H/HeN mice were infected with E. coli UT189. Twenty-four hours after infection (‘pre-treatment’ in FIGS. 4a-c), a vehicle (20% hydroxypropyl β cyclodextrin) containing no compound (I) or comparative compound (III), or a vehicle (20% hydroxypropyl β cyclodextrin) containing compound (I) or comparative compound (III), was administered by IV bolus of 20 mg/kg, TID (8 hrs apart), over 3 days.

[1] = IV bolus 20 mg/kg TID over 3 days, 96 h after initial infection
[2] = difference in log reduction, 96 h

`Cc1cnccc1-c1[nH]c(N)nc1-c1ccc2c(c1)N(C(=O)C(C)(C)N)CCO2` [Compound (I), 2-amino-1-(6-(2-amino-5-(3-methylpyridin-4-yl)-1H-imidazol-4-yl)-2,3-dihydro-4H-benzo[b][1,4]oxazin-4-yl)-2-methylpropan-1-one] was tested, and the “bacterial burden in the urine at end of study” value (IV bolus 20 mg/kg TID over 3 days, 96 h) was “below the limit of detection (LOD)”, the “reduction of bacterial burden in the bladder compared to vehicle” value [1] was 5.67 log and the “reduction of bacterial burden in the kidney compared to vehicle” value [1] was 4.73 log. For the same molecule, the “more efficacious than comparative compound (III), bladder” value [2] was 3 log, the “more efficacious than comparative compound (III), urine” value [2] was 3 log and the “reduction of bacterial burden in the urine compared to vehicle” value (female C3H/HeN mice, IV bolus 20 mg/kg TID over 3 days, 96 h after initial infection) was 6.59 log.
